Several values for one entry are separate records, joined by “and”; a condition that tells them apart may be missing. Equal entries are not always repeated.

The nature of data set [1]: Pharmacokinetics in whole blood, Sprague-Dawley rats. The conditions noted are these: Sprague-Dawley rat, metabolite AUCall/Parent AUCall x 100.
Procedure: (§1) The whole blood samples (0.5 mL) were collected into syringes that were prefilled with 2.5 mL of ice-cold 0.1% formic acid in acetonitrile. The volume ratio of the whole blood to 0.1% formic acid in acetonitrile was 1/5 (v/v). Samples were frozen (-70°C) until analyzed by LC-MS/MS.
(§2) Standard curves and quality control (QC) samples were prepared fresh on the day of analysis by serial dilution of the standard mixture in quenched whole blood (1 part of blood to 5 parts of 0.1% formic acid in acetonitrile) and centrifuged. […] The frozen study samples were thawed in an ice/water bath and centrifuged. Supernatant (50 μL) from standards, QC samples, and study samples was transferred to a 96-well plate and dried completely under nitrogen. The dried residues were reconstituted with 100 μL of 0.1% formic acid in water containing internal standard (5 ng/mL of ^15N/^13C3-RE-024-02) and analyzed by LC-MS/MS.
(§3) LC-MS/MS analysis for blood pharmacokinetic samples: Samples were analyzed using an Agilent 1100 binary pump (Agilent Technologies, Santa Clara, CA, USA), connected to an AB Sciex API 6500 mass spectrometer (SCIEX, Framingham, MA, USA). An electrospray ionization source was used, scanning in the positive mode. […] The chromatography column was a Varian Metasil AQ 120–5 C18 column, 5 μm, 50 x 2.00 mm (Part No. A0530050X020) at ambient temperature, with a 0.5 mL/min flow rate and a 20 μL injection volume. Mobile phase (A) consisted of 0.1% formic acid in water; while mobile phase (B) consisted of 0.1% formic acid in acetonitrile:water (9:1, v/v).
(§4) Quantitation of in vivo samples: Peak areas were integrated using Analyst software (AB Sciex, Concord, Ontario, Canada). […] Calibration standards (at a minimum 7 per curve) were fit by linear regression with (1/x^2) weighting. QC samples were used (triplicate) at 3 concentrations for all tandem mass spectrometry (MS/MS) runs.
(§5) Pharmacokinetic calculations: PK analysis was performed using Phoenix WinNonlin®, Build 6.3.0.395 (Certara, Princeton, NJ, USA) using a non-compartmental model (PO dose = model 200 for extravascular dosing). […] Post-dose concentrations below the limit of quantitation (BLQ) were omitted from calculation.
Data set [2] is described as follows: Pharmacokinetics in whole blood, CD-1 mice. To be noted: for % Parent AUCAll: CD1 mouse, metabolite AUCall/Parent AUCall x 100; for Whole Blood Conc. of compound 3: CD-1 mice; for concentration at 2 h / concentration at 8 h / concentration at 0.5 h: male, CD-1, mouse, whole blood, po, Whole Blood Conc. of compound 3, CD-1 mice.
Procedure: as §1, §2, §3, §4, §5
Data set [3] in a line: Pharmacokinetics in whole blood, cynomolgus monkeys. The conditions noted are these: for % Parent AUCAll: Cynomolgus monkey, 300 mg/kg PO, metabolite AUCall/Parent AUCall x 100.
Procedure: as §1, §2, §3, §4, §5

Turning to `CC1(C)COP(=O)(O)O[C@H]1C(=O)NCCC(=O)O` [Compound 3], the “% Parent AUCAll” value in data set [1] (300 mg/kg PO) is on record as 4,130%; in data set [1] (700 mg/kg PO), 209%; in data set [2] (100 mg/kg PO), 8,900%; in data set [2] (300 mg/kg PO), 18,900%; in data set [2] (700 mg/kg PO), 1,990%; in data set [3] it was 9%. Moreover, the “Whole Blood Conc. of compound 3” value was “BQL” in data set [2] (single 100 mg/kg RE-024-02 PO, 4 hr, LLOQ 6 ng/mL); “BQL” in data set [2] (single 100 mg/kg RE-024-02 PO, 4 hr, LLOQ 21.3 nM); 126 ng/mL and 156 ng/mL and 189 ng/mL in data set [2] (single 700 mg/kg RE-024-02 PO, 0.5 hr, LLOQ 6 ng/mL, 700 mg/kg); 448.1 nM and 554.8 nM and 672.1 nM in data set [2] (single 700 mg/kg RE-024-02 PO, 0.5 hr, LLOQ 21.3 nM, 700 mg/kg); 67.2 ng/mL and 69.6 ng/mL and 72 ng/mL in data set [2] (single 700 mg/kg RE-024-02 PO, 2 hr, LLOQ 6 ng/mL, 700 mg/kg); 239 nM and 247.5 nM and 256 nM in data set [2] (single 700 mg/kg RE-024-02 PO, 2 hr, LLOQ 21.3 nM, 700 mg/kg). Besides, the concentration at 2 h in data set [2] (100 mg/kg, single 100 mg/kg RE-024-02 PO, 2 hr, LLOQ 6 ng/mL) stood at 6.7 ng/mL; in data set [2] (100 mg/kg, single 100 mg/kg RE-024-02 PO, 2 hr, LLOQ 21.3 nM) it was 23.7 nM; in data set [2] (700 mg/kg, single 700 mg/kg RE-024-02 PO, 2 hr, LLOQ 6 ng/mL) it was 48.2 ng/mL; in data set [2] (700 mg/kg, single 700 mg/kg RE-024-02 PO, 2 hr, LLOQ 21.3 nM) it was 172 nM. The concentration at 8 h in data set [2] (100 mg/kg, single 100 mg/kg RE-024-02 PO, LLOQ 6 ng/mL) stood at 6.1 ng/mL; in data set [2] (100 mg/kg, single 100 mg/kg RE-024-02 PO, LLOQ 21.3 nM), 21.6 nM; in data set [2] (300 mg/kg, single 300 mg/kg RE-024-02 PO, LLOQ 6 ng/mL) it was 7.6 ng/mL; in data set [2] (300 mg/kg, single 300 mg/kg RE-024-02 PO, LLOQ 21.3 nM), 26.9 nM; in data set [3] (cynomolgus monkey, whole blood, po, 300 mg/kg, Concentration of compound 3 in whole blood, cynomolgus monkeys, single oral 300 mg/kg fosmetpantotenate, 8 hr, LLOQ 2.13 nM), 619 nM. Besides, the concentration at 0.5 h in data set [2] (700 mg/kg, single 700 mg/kg RE-024-02 PO, 0.5 hr, LLOQ 6 ng/mL) stood at 162 ng/mL; in data set [2] (700 mg/kg, single 700 mg/kg RE-024-02 PO, 0.5 hr, LLOQ 21.3 nM), 576 nM. Moreover, in data set [3] (cynomolgus monkey, whole blood, po, 300 mg/kg, Concentration of compound 3 in whole blood, cynomolgus monkeys, single oral 300 mg/kg fosmetpantotenate, 0.25 hr, LLOQ 2.13 nM), the concentration at 0.25 h is 5.33 nM. The same compound returned a concentration at 4 h in data set [3] (cynomolgus monkey, whole blood, po, 300 mg/kg, Concentration of compound 3 in whole blood, cynomolgus monkeys, single oral 300 mg/kg fosmetpantotenate, 4 hr, LLOQ 2.13 nM) of 432 nM. For the same compound, the “Concentration of compound 3 in whole blood” value in data set [3] (cynomolgus monkeys, single oral 300 mg/kg fosmetpantotenate, 0.25 hr, LLOQ 2.13 nM, 300 mg/kg) is given as 3.41 nM; in data set [3] (cynomolgus monkeys, single oral 300 mg/kg fosmetpantotenate, 4 hr, LLOQ 2.13 nM, 300 mg/kg), 654.2 nM; in data set [3] (cynomolgus monkeys, single oral 300 mg/kg fosmetpantotenate, 8 hr, LLOQ 2.13 nM, 300 mg/kg), 508.25 nM.
With `COC(=O)[C@H](C)NP(=O)(OCC(C)(C)[C@@H](O)C(=O)NCCC(=O)O)Oc1ccccc1` (stereo partly shown) [Compound 4], the “% Parent AUCAll” value in data set [1] (300 mg/kg PO) was 2,820%; in data set [1] (700 mg/kg PO), 849%; in data set [2] (100 mg/kg PO) it was 3,180%; in data set [2] (300 mg/kg PO) it was 12,600%; in data set [2] (700 mg/kg PO), 10,500%; in data set [3], 301%. In addition, the concentration at 0.083 h in data set [3] (cynomolgus monkey, in vivo, po, 300 mg/kg, Concentration of compound 4 in whole blood, cynomolgus monkeys, single oral 300 mg/kg fosmetpantotenate, 0.083 hr, sum of diastereomers, LLOQ 1.30 nM) amounted to 13.2 nM. This compound registered a concentration at 2 h in data set [3] (cynomolgus monkey, in vivo, po, 300 mg/kg, Concentration of compound 4 in whole blood, cynomolgus monkeys, single oral 300 mg/kg fosmetpantotenate, 2 hr, sum of diastereomers, LLOQ 1.30 nM) of 5070 nM. Besides, in data set [3] (cynomolgus monkey, in vivo, po, 300 mg/kg, Concentration of compound 4 in whole blood, cynomolgus monkeys, single oral 300 mg/kg fosmetpantotenate, 4 hr, sum of diastereomers, LLOQ 1.30 nM), the concentration at 4 h came to 665 nM. Also, the “Concentration of compound 4 in whole blood” value in data set [3] (cynomolgus monkeys, single oral 300 mg/kg fosmetpantotenate, 0.083 hr, sum of diastereomers, LLOQ 1.30 nM, 300 mg/kg) stood at 8.08 nM; in data set [3] (cynomolgus monkeys, single oral 300 mg/kg fosmetpantotenate, 2 hr, sum of diastereomers, LLOQ 1.30 nM, 300 mg/kg), 5694.67 nM; in data set [3] (cynomolgus monkeys, single oral 300 mg/kg fosmetpantotenate, 4 hr, sum of diastereomers, LLOQ 1.30 nM, 300 mg/kg), 600.1 nM.

The values above are taken from article PMC5844530, “Fosmetpantotenate (RE-024), a phosphopantothenate replacement therapy for pantothenate kinase-associated neurodegeneration: Mechanism of action and efficacy in nonclinical models” (PLoS ONE, 2018).
